Here are results for eight compounds from patent US4242504A, “3"-Acylated macrolide antibiotics” (Toyo Jozo Kabushiki Kaisha, priority 1978, dated 1980).

Values after ≈ are worked out from the molar mass of the structure shown. Bounds are passed on as bounds.

Experiment [1] relates to Staph.aureus 6538P. Briefly: Minimum Inhibitory Concentration (MIC), broth dilution method. The settings on record: Staphylococcus aureus, inoculum size 10^6 /ml. Type of experiment: cell-based. In general terms: In broth dilution the organism is exposed to a series of concentrations in liquid medium.
Experiment [2] deals with Staph.aureus MS353 C36. Described as above. As to conditions: Staphylococcus aureus, MS353C36, Staph.aureus MS353 C36, inoculum size 10^6 /ml. Type of experiment: cell-based. An excerpt:
(§1) Minimum Inhibitory Concentration (MIC) μg/ml
(§2) clinical isolates (macrolide resistant Agroup strains) inoculum size
(§3) 10^6 /ml, broth dilution method.

The test system of experiment [3] is Staph.aureus MS353. The description is as above. Type of experiment: cell-based. The settings on record: Staphylococcus aureus, inoculum size 10^6 /ml.
Text: as §1, §2, §3

Experiment [4] has as its system Strept.faecalis 1501. The description is as above. Type of experiment: cell-based. As to conditions: for MIC: Enterococcus faecalis, 1501, Strept.faecalis 1501, inoculum size 10^6 /ml.
Experiment [5] deals with Staph. aureus 0116. Described as above. Type of experiment: cell-based. The settings on record: inoculum size 10^6 /ml; for MIC: Staphylococcus aureus, 0116, Staph. aureus 0116, macrolide resistant clinical isolate (A group).
Text: as §1
(§4) *Erythromycin, oleandomycin, 16membered macrolide resistant strains of
as §2, §3

For experiment [6], the system named is Staph.aureus 0119. Described as above. The settings on record: inoculum size 10^6 /ml; for MIC: Staphylococcus aureus, 0119, Staph.aureus 0119, macrolide resistant clinical isolate (A group). Type of experiment: cell-based.
Text: as §1, §4, §2, §3

For experiment [7], the system named is Staph.aureus MS 353AO. Described as above. Type of experiment: cell-based. The settings on record: macrolide resistant clinical isolate (A group), inoculum size 10^6 /ml; for MIC: Staphylococcus aureus, MS353AO.
Text: as §1, §4, §2, §3

Experiment [8] concerns Strept.pyogenes 1022. The experiment is described as above. Type of experiment: cell-based. As to conditions: inoculum size 10^6 /ml; for MIC: Streptococcus pyogenes, 1022, Strept.pyogenes 1022, macrolide resistant clinical isolate (A group).
Text: as §1, §4, §2, §3

A short description of experiment [9]: Potency as compared with standard leucomycin.

With `CCCC(=O)OC1(C)CC(OC2C(C)OC(OC3C(CC=O)CC(C)C(O)C=CC=CCC(C)OC(=O)CC(O)C3OC)C(O)C2N(C)C)OC(C)C1OC(C)=O` (stereo not shown) [4"-acetyl-3"-butylyl LM-A5, 4"-acetyl-3"-butylyl leucomycin V], the MIC in experiment [1] is 1.6 µg/mL (≈ 1.97 µM); in experiment [2], 0.8 µg/mL (≈ 0.983 µM); in [3], 1.6 µg/mL (≈ 1.97 µM); in experiment [4], 0.8 µg/mL (≈ 0.983 µM); in experiment [5], 50 µg/mL (≈ 61.4 µM); in experiment [6], more than 100 µg/mL. Also, the MIC in experiment [7] came out at 25 µg/mL (≈ 30.7 µM); in [8] it was 6.3 µg/mL (≈ 7.74 µM).

As to `COC1C(OC(C)=O)CC(=O)OC(C)CC=CC=CC(O)C(C)CC(CC=O)C1OC1OC(C)C(OC2CC(C)(O)C(OC(=O)CC(C)C)C(C)O2)C(N(C)C)C1O` (stereo not shown) [LM-A3, Leucomycin A3, reference compound], the MIC in [1] is 3.1 µg/mL (≈ 3.74 µM); in experiment [2], 1.6 µg/mL (≈ 1.93 µM); in [3], 3.1 µg/mL (≈ 3.74 µM); in [4] it was 3.1 µg/mL (≈ 3.74 µM); in [5], more than 100 µg/mL; in experiment [6], more than 100 µg/mL. The MIC in experiment [7] and in experiment [8] was more than 100 µg/mL throughout.

For the compound `CCCC(=O)OC1C(C)OC(OC2C(C)OC(OC3C(CC=O)CC(C)C(O)C=CC=CCC(C)OC(=O)CC(O)C3OC)C(O)C2N(C)C)CC1(C)O` (stereo not shown) [LM-A5, Leucomycin A5, reference compound], the MIC was 1.6 µg/mL (≈ 2.07 µM) in experiment [1]; 1.6 µg/mL (≈ 2.07 µM) in experiment [2]; 1.6 µg/mL (≈ 2.07 µM) in experiment [3]; 1.6 µg/mL (≈ 2.07 µM) in [4]; more than 100 µg/mL in experiment [5]; more than 100 µg/mL in experiment [6]. The MIC in [7] and in experiment [8] was more than 100 µg/mL each time.

On to `CCCC(=O)OC1C(C)OC(OC2C(C)OC(OC3C(CC=O)CC(C)C(O)C=CC=CCC(C)OC(=O)CC(O)C3OC)C(O)C2N(C)C)CC1(C)OC(=O)CC` (stereo not shown) [3"-propionyl LM-A5, 3"-propionyl leucomycin A5], for which the MIC in experiment [1] was 0.8 µg/mL (≈ 0.966 µM); in [2] it was 0.8 µg/mL (≈ 0.966 µM); in experiment [3], 1.6 µg/mL (≈ 1.93 µM); in experiment [4], 0.8 µg/mL (≈ 0.966 µM); in experiment [5], 12.5 µg/mL (≈ 15.1 µM); in [6], more than 100 µg/mL. Moreover, the MIC is more than 100 µg/mL in experiment [7] and 0.4 µg/mL (≈ 0.483 µM) in experiment [8]. Also, the Potency in [9] came out at 2850 µg/mg.

As for `CCCC(=O)OC1C(C)OC(OC2C(C)OC(OC3C(CC=O)CC(C)C(O)C=CC=CCC(C)OC(=O)CC(OC(C)=O)C3OC)C(O)C2N(C)C)CC1(C)OC(C)=O` (stereo not shown) [3,3"-diacetyl LM-A5, 3,3"-diacetylleucomycin A5], the MIC in experiment [1] was 1.6 µg/mL (≈ 1.87 µM); in experiment [2], 0.8 µg/mL (≈ 0.935 µM); in experiment [3], 1.6 µg/mL (≈ 1.87 µM); in experiment [4], 1.6 µg/mL (≈ 1.87 µM); in [5] it was 50 µg/mL (≈ 58.4 µM); in [6], more than 100 µg/mL. Further, the MIC in experiment [7] was more than 100 µg/mL; in experiment [8] it was 1.6 µg/mL (≈ 1.87 µM).

Take `CCCC(=O)OC1C(C)OC(OC2C(C)OC(OC3C(CC=O)CC(C)C(O)C=CC=CCC(C)OC(=O)CC(O)C3OC)C(O)C2N(C)C)CC1(C)OC(=O)CCC` (stereo not shown) [3"butylyl LM-A5, 3"-butylyl leucomycin A5]: the MIC in [1] came to 0.8 µg/mL (≈ 0.95 µM); in [2], 0.4 µg/mL (≈ 0.475 µM); in [3], 1.6 µg/mL (≈ 1.9 µM); in experiment [4] it was 0.8 µg/mL (≈ 0.95 µM); in experiment [5], 50 µg/mL (≈ 59.4 µM); in experiment [6], 100 µg/mL (≈ 119 µM). Also, the MIC in [7] is more than 100 µg/mL; in [8] it was 0.8 µg/mL (≈ 0.95 µM).

Regarding `CCCC(=O)OC1C(C)OC(OC2C(C)OC(OC3C(CC=O)CC(C)C(O)C=CC=CCC(C)OC(=O)CC(O)C3OC)C(O)C2N(C)C)CC1(C)OC(C)=O` (stereo not shown) [3"-acetyl LM-A5, 3"-acetyl leucomycin A5], the MIC was 1.6 µg/mL (≈ 1.97 µM) in experiment [1]; 1.6 µg/mL (≈ 1.97 µM) in experiment [3]; 0.8 µg/mL (≈ 0.983 µM) in experiment [4]; 6.3 µg/mL (≈ 7.74 µM) in experiment [5]; 100 µg/mL (≈ 123 µM) in experiment [6]; more than 100 µg/mL in experiment [7]. This compound gave an MIC in experiment [8] of 0.4 µg/mL (≈ 0.491 µM). Moreover, the “Minimum Inhibitory Concentration (MIC)” value in experiment [4] (Strept.faecalis 1501, inoculum size 10^6 /ml) was 1.6 µg/mL; in [5] (Staph. aureus 0116, macrolide resistant clinical isolate (A group)), 12.5 µg/mL; in experiment [6] (Staph.aureus 0119, macrolide resistant clinical isolate (A group)) it was more than 100 µg/mL; in experiment [7], 100 µg/mL; in [8] (Strept.pyogenes 1022, macrolide resistant clinical isolate (A group)), 0.8 µg/mL. In experiment [9], this compound registered a Potency of 2850 µg/mg.

Regarding `CCCC(=O)OC1C(C)OC(OC2C(C)OC(OC3C(CC=O)CC(C)C(OC(C)=O)C=CC=CCC(C)OC(=O)CC(O)C3OC)C(O)C2N(C)C)CC1(C)OC(C)=O` (stereo not shown) [9,3"-diacetyl LM-A5, 9,3"-diacetyl leucomycin A5], the MIC in experiment [1] came to 0.8 µg/mL (≈ 0.935 µM); in experiment [2], 0.8 µg/mL (≈ 0.935 µM); in experiment [3], 1.6 µg/mL (≈ 1.87 µM); in experiment [4], 1.6 µg/mL (≈ 1.87 µM); in experiment [5] it was 12.5 µg/mL (≈ 14.6 µM); in [6], 100 µg/mL (≈ 117 µM). The MIC was more than 100 µg/mL in experiment [7] and 0.4 µg/mL (≈ 0.467 µM) in experiment [8].

Usually MIC stands for the lowest concentration that inhibits growth of the organism. A higher MIC goes with a less susceptible organism.
